Data on 22 molecules can be found in patent US5314910A, “Ester inhibitors” (Cortech Inc., priority 1993, dated 1994).

One test has as its target T1, human neutrophil elastase (HNE) (Homo sapiens, UniProt P08246).
T1 sequence (P08246 30-267): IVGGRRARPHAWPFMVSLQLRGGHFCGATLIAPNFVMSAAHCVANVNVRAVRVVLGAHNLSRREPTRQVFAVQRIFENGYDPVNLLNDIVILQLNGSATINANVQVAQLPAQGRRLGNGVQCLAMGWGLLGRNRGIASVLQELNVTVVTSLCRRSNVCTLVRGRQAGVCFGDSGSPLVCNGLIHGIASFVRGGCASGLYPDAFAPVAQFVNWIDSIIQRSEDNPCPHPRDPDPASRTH
Nature of the test: Potency (I50 Determination), HNE inhibition. Format: biochemical. To be noted: substrate N-methoxysuccinyl-ala-ala-pro-val-pNA, pH 7.7, 7 minutes incubation at room temperature, 405 nm. The procedure: Potency (I50 Determination)
A) 0.075 M sodium phosphate, 20% dimethyl sulfoxide (DMSO), pH 7.7=substrate and inhibitor buffer
B) 0.075 M sodium phosphate, no DMSO, pH 7.7=inhibitor buffer
C) 10 mM human neutrophil elastase (HNE) substrate=N-methoxysuccinyl-ala-ala-pro-val-pNA in DMSO
D) 0.01 M sodium acetate, 20% DMSO, pH 5.5=enzyme buffer (dilution)
E) 0.01 M sodium acetate, pH 5.5 enzyme buffer (storage)
F) HNE (1 mg) dissolved in 1 ML of reagent E for storage at -20° C.
Make a 10 mM stock of the inhibitor in DMSO. Dilute an aliquot (10 μL) up to 1.0 mL in reagent A (100 μM). Serially dilute 100 μL of the 100 μM stock to […], 1.0, 0.1, 0.01 μM in reagent A. Apply 100 μL of the diluted material to the wells of a 96-well plate. Dilute an aliquot of reagent F 1:150 in reagent D, apply 50 μL aliquots to the indicated wells and incubate for 7 minutes at room temperature.
The HNE substrate solution is made by taking 100 μL of reagent C into 500 μL of reagent A and 400 μL of reagent B. After the 7 minutes of incubation, the substrate (50 μL) is applied to each well. The HNE catalyzed reaction is then monitored spectrophotometrically at 405 nm using an ELISA plate reader machine (UVMAX, Molecular Devices) which processes the raw data with an on-board kinetics program. The enzyme activity is plotted against different inhibitor concentrations and the […] is determined by using a curve fitting software program. Once the "screening" I50 has been approximated, a more precise I50 value can be obtained by examination of inhibitor concentrations around this value.
One may read the IC50 as the concentration at which inhibition is half-maximal. Higher therefore signals a need for much substance. In turn, `CCC(C(=O)Oc1ccc(SC)cc1)c1ccoc1` (centres unmarked) [Compound 1] came in with an IC50 of 6060 nM. In other words, the single-digit micromolar range. Still for that read-out and setting: for `CCC(C(=O)Oc1ccc([S+](C)[O-])cc1)c1ccoc1` (centres unmarked) [Compound 2] the value was 1440 nM; for `CCC(C(=O)Oc1ccc(S(C)(=O)=O)cc1)c1ccoc1` (centres unmarked) [Compound 3], 470 nM.

`CCC(C(=O)Oc1ccc(SC)cc1)c1coc2ccccc12` (centres unmarked) [Compound 4] yielded an IC50 of 3800 nM. This IC50 is about 8.1-fold higher than that of the molecule before.

`CCC(C(=O)Oc1ccc([S+](C)[O-])cc1)c1coc2ccccc12` (centres unmarked) [Compound 5]: the IC50 turned out to be 420 nM. The same measure, in the same setting: for `CCC(C(=O)Oc1ccc(S(C)(=O)=O)cc1)c1coc2ccccc12` (centres unmarked) [Compound 6] the value was 150 nM; for `CCC(C(=O)Oc1ccc(SC)cc1)c1cccs1` (centres unmarked) [Compound 7], 3000 nM. Same read-out and setting: for `CCC(C(=O)Oc1ccc([S+](C)[O-])cc1)c1cccs1` (centres unmarked) [Compound 8] the value was 430 nM. Still for that read-out and setting: for `CCC(C(=O)Oc1ccc(S(C)(=O)=O)cc1)c1cccs1` (centres unmarked) [Compound 9] the value was 290 nM. `CCC(C(=O)Oc1ccc([N+](=O)[O-])cc1)c1cccs1` (centres unmarked) [Compound 10] displayed an IC50 of 270 nM. Consider `CCC(C(=O)Oc1ccc(SC)cc1)c1ccsc1` (centres unmarked) [Compound 11, 4-Methylmercaptophenyl 2-(3-thiophene)butyrate], for which it took 1500 nM to reach half-maximal inhibition (IC50). For the molecule `CCC(C(=O)Oc1ccc([S+](C)[O-])cc1)c1ccsc1` (centres unmarked) [Compound 12, 4-Methylsulfinylphenyl 2-(3-thiophene)butyrate], the IC50 was determined as 130 nM. On the same count and under the same terms, to `CCC(C(=O)Oc1ccc(S(C)(=O)=O)cc1)c1ccsc1` (centres unmarked) [Compound 13, 4-Methylsulfonylphenyl 1-(3-thiophene)butyrate] belongs 50 nM; to `CCC(C(=O)Oc1ccc([N+](=O)[O-])cc1)c1ccsc1` (centres unmarked) [Compound 14], 120 nM. The same measure, in the same setting: for `CCC(C(=O)Oc1ccc(SC)cc1)c1cccn1C` (centres unmarked) [Compound 15, 4-Methylmercaptophenyl 2-(1-Methyl-2-pyrrole)butyrate] the value was 6200 nM; for `CCC(C(=O)Oc1ccc([S+](C)[O-])cc1)c1cccn1C` (centres unmarked) [Compound 16, 4-Methylsulfinylphenyl 2-(1-Methyl-2-pyrrole)butyrate], 460 nM.

Turning to `CCC(C(=O)Oc1ccc(S(C)(=O)=O)cc1)c1cccn1C` (centres unmarked) [Compound 17, 4-Methylsulfonylphenyl 2-(1-Methyl-2-pyrrole)butyrate], it took 60 nM to reach half-maximal inhibition (IC50). Same read-out and setting: to `CCC(C(=O)Oc1ccc([N+](=O)[O-])cc1)c1cccn1C` (centres unmarked) [Compound 18] belongs 200 nM; to `CCC(C(=O)Oc1ccc(SCC(C)(C)C(=O)O)cc1)c1cccn1C` (centres unmarked) [Compound 19, 4-(2'-Carboxy-2'-methylpropylmercapto)phenyl 2-(1-Methyl-2-pyrrole)butyrate], 200 nM; to `CCC(C(=O)Oc1ccc([S+]([O-])CC(C)(C)C(=O)O)cc1)c1cccn1C` (centres unmarked) [Compound 20, 4-(2,-Carboxy-2'-methylpropylsulfinyl)phenyl 2-(1-Methyl-2-pyrrole)butyrate], 590 nM. `CCC(C(=O)Oc1ccc(SC)cc1)c1c[nH]c2ccccc12` (centres unmarked) [Compound 21] gave an IC50 of 33000 nM.

In turn, `CCC(C(=O)Oc1ccc([S+](C)[O-])cc1)c1c[nH]c2ccccc12` (centres unmarked) [Compound 22] gave an IC50 of 1900 nM. This IC50 lies about 17-fold lower than the previous one.

The subject of the next test is ischemia reperfusion injuries (myocardial infarct size). Description: Ischemia reperfusion injury in dogs, myocardial infarct size. It counts as in vivo, dog.
Settings: not given
How it is done: Experiments have been conducted on dogs to study the effect of the compounds of the invention in the treatment of ischemia reperfusion injuries.
The protocol used in the experiment referred to in the preceding paragraph involved the following:
Male mongrel dogs (13 to 17 kg) were anesthetized with sodium pentobarbital, 30 mg/kg i.v., intubated and ventilated with room air via a Harvard respirator. Lead II of the electrocardiogram and hemodynamics were monitored continuously throughout the course of the experiment. A catheter was inserted into the left carotid artery and advanced into the left ventricle for the continuous recording of left ventricular pressure. […] After 24 hr of reperfusion, the animal was reanesthetized, the thoracotomy incision opened, the heart fibrillated electrically and removed rapidly for postmortem quantification of infarct size.
Animals were randomized to receive either the test compound or a placebo (diluent) administered as an intracoronary infusion via a catheter inserted into the left circumflex coronary artery just distal to the point at which the vessel is occluded. The dose was determined on the basis of known pharmacokinetic data and the infusion was maintained throughout the 90 period of regional ischemia as well as during the 24 hour reperfusion period. […]
Regarding `CCC(C(=O)Oc1ccc([S+](C)[O-])cc1)c1cccn1C` (centres unmarked) [Compound 16, 4-Methylsulfinylphenyl 2-(1-Methyl-2-pyrrole)butyrate], the “reduction in infarct size compared to the controls (in words)” value is given as “significant reduction in infarct size”.
